Reference: US20140243319A1, “TREATMENTS TARGETING GAMMA-SYNUCLEIN EXPRESSION LEVELS” (GEORGETOWN UNIVERSITY, priority 2011, published 2014)

Assays:
HCT 116 = test: MTT cell viability assay in HCT 116 cells; format: cell-based; conditions: Homo sapiens, read-out: IC50 values of cell death
HT-29 = test: MTT cell viability assay in HT-29 cells; format: cell-based; conditions: Homo sapiens, read-out: IC50 values of cell death
A549 = test: MTT cell viability assay in A549 cells; format: cell-based; conditions: Homo sapiens, read-out: IC50 values of cell death
DU145 = test: MTT cell viability assay in DU145 cells; format: cell-based; conditions: Homo sapiens, DU-145, read-out: IC50 values of cell death
HeLa = test: MTT cell viability assay in HeLa cells; format: cell-based; conditions: Homo sapiens, read-out: IC50 values of cell death
SK-BR-3 = test: MTT cell viability assay in SK-BR-3 cells; format: cell-based; conditions: Homo sapiens, read-out: IC50 values of cell death
MD-MB-231 = test: MTT cell viability assay in MD-MB-231 cells; format: cell-based; conditions: read-out: IC50 values of cell death
ASPC-1 = test: MTT cell viability assay in ASPC-1 pancreatic cancer cells; format: cell-based; conditions: Homo sapiens, ASPC1; ASPC-1 cells; read-out: IC50 values of cell death
Colo-357 = test: MTT cell viability assay in Colo-357 pancreatic cancer cells; format: cell-based; conditions: Homo sapiens, COLO357; Colo-357 cells; read-out: IC50 values of cell death
BxPC-3 = test: MTT cell viability assay in BxPC-3 pancreatic cancer cells; format: cell-based; conditions: Homo sapiens; BxPC-3 cells; read-out: IC50 values of cell death
γ-Syn [1] = test: Western blot of γ-Syn levels in T47D cells; format: cell-based; conditions: for decrease of γ-Syn levels: 48 h pretreatment, Western blot
Procedure: Various cancer cell lines were tested for expression of γ-Syn by Western blots. (FIG. 4) Two breast carcinoma cell lines were tested for γ-Syn expression by Western blots, and human brain (hIFG) was used as a positive control.

WKY rats [2] = test: Depression model, behavior of WKY rats; format: in vivo, rat; conditions: for mobility and climbing behaviors: WKY rats, chronic administration, FIG. 1
γ-Syn [3] = test: Western blot of γ-Syn protein in brain of WKY rats; format: in vivo, rat; conditions: brains of WKY rats, FIG. 3
Text: In brain, γ-Syn is expressed in presynaptic terminals of monoaminergic neurons, and our lab has shown that this protein can regulate the function of norepinephrine and serotonin transporters. Unlike α-Syn, whose role in neurodegenerative diseases such as Parkinson's disease is well established, a role for γ-Syn in neurodegeneration is not known. γ-Syn is overexpressed in the frontal cortex of the WKY, a rat model of depression. […] The ability of γ-Syn to bind tightly to MTs may be one mechanism by which its overexpression in carcinomas protects cells from the MT actions of chemotherapeutic agents, for example, taxol, nocodazole, vinblastine and colchicine.

γ-Syn [4] = test: γ-Syn protein expression in selected γ-Syn expressing cells; format: cell-based; conditions: 48 h
Text: Cells were selected that expressed γ-Syn. […] We next measured cell death by MTT assays and found a direct correlation between loss of γ-Syn protein expression and cell death.

[5] = tested on: cells that expressed γ-Syn; test: MTT cell death assay in cells that express γ-Syn; format: cell-based
Text: Cells were selected that expressed γ-Syn.

[6] = tested on: cells that did not express any γ-Syn; test: MTT cell death assay in cells that do not express γ-Syn; format: cell-based; conditions: cells without γ-Syn expression, 50 μM DMI
PC cells = format: cell-based; conditions: DMI at clinically relevant concentrations
γ-Syn [7] = test: γ-Syn expression in pancreatic cancer (PC) cells; format: cell-based; conditions: clinically relevant concentrations
WKY rats [8] = conditions: rat depression model, Jeannotte et al. 2009; cited from earlier work
γ-Syn [9] = conditions: rat depression model, Jeannotte et al. 2009; cited from earlier work
T47D cells = test: MTT cell viability assay in T47D breast cancer cells
[10] = T47D cells, 48 h, 25 μM single agent, MTT

Structure (SMILES): CNCCCN1c2ccccc2CCc2ccccc21 [DMI, desipramine]
- IC50 (HCT 116): 43 ± 3 µM
- IC50 (HT-29): 38 µM
- IC50 (A549): > 50 µM
- IC50 (DU145): > 50 µM
- IC50 (HeLa): 43 µM
- IC50 (SK-BR-3): 40 µM
- IC50 (MD-MB-231): > 50 µM
- IC50 (ASPC-1): > 50 µM
- IC50 (Colo-357): > 50 µM
- IC50 (BxPC-3): > 50 µM
- γ-Syn levels (in words) (γ-Syn [1]; 10 μM and 50 μM): reduces γ-Syn levels
- decrease of γ-Syn levels (γ-Syn [1]; 10 μM DMI): 40%
- decrease of γ-Syn levels (γ-Syn [1]; 50 μM DMI): 85%
- depressive symptoms (WKY rats [2]; WKY rat, chronic treatment for 2 weeks): relief in the depressive symptoms
- mobility and climbing behaviors (WKY rats [2]): improvements in mobility and climbing behaviors
- γ-Syn protein levels (Western blot) (γ-Syn [3]): reduced levels of γ-Syn protein
- γ-Syn protein levels (Western blot) (γ-Syn [3]; listed as desipramine): reduced
- γ-Syn protein expression (in words) (γ-Syn [4]; 0-50 μM DMI): dose-dependent decrease in γ-Syn protein expression
- γ-Syn protein expression decreased (γ-Syn [4]; 50 μM DMI): > 85%
- cell death ([5]; each compound used alone): ~15%
- cell death ([5]; γ-Syn expressing cells, 50 μM DMI, MTT): > 90%
- cell death (in words) [6]: no cell death
- cell death (PC cells): > 60%
- γ-Syn expression (in words) (γ-Syn [7]): reduce γ-Syn expression
- depressive state (WKY rats [8]): relieves their depressive state
- expression levels of γ-Syn (γ-Syn [9]): reduces expression levels of γ-Syn
- cell viability (T47D cells; 10 μM of either drug alone): ~80%
- cell viability (T47D cells; [10]): 58%
- cell viability (T47D cells; T47D cells, 48 h, 50 μM DMI alone, MTT (data not shown)): ~5%
- IC50 (T47D cells; read-out: IC50 values of cell death, T47D cells): 35 µM

Structure (SMILES): NNCCc1ccccc1 [phenelezine]
- mobility and climbing behaviors (WKY rats [2]): improvements in mobility and climbing behaviors

Structure (SMILES): CC(=O)O[C@H]1C(=O)[C@@]2(C)[C@H]([C@H](OC(=O)c3ccccc3)[C@]3(O)C[C@H](OC(=O)[C@H](O)[C@@H](NC(=O)c4ccccc4)c4ccccc4)C(C)=C1C3(C)C)[C@]1(OC(C)=O)CO[C@@H]1C[C@@H]2O [taxol, Paclitaxel]
- cell death ([5]; each compound used alone): ~15%
- cell viability (T47D cells; 10 μM of either drug alone): ~80%
- sensitivity of cells to taxol (in words) (T47D cells; T47D cells expressing γ-Syn): resistant to taxol treatment
- cell viability (T47D cells; [10]): 52%
